The structures appear in SMILES notation.

The record followed here is article PMC12719775, “Alexidine is a TAZ-specific small-molecule inhibitor that suppresses breast cancer invasion and metastasis” (iScience, 2025).

Holding throughout (type): biochemical
The target of assay [1] is T1, GST-TAZ / Venus-Flag-TEAD1 (VF-TEAD1) (Homo sapiens, UniProt Q9GZV5).
T1 construct: gene WWTR1; with Transcriptional enhancer factor TEF-1
Put plainly: GST pull-down with western blot densitometry. Conditions: HEK293T lysate, 18 h at 4 °C; protein-protein interaction inhibition.

The target of assay [2] is T2, TAZ (Homo sapiens, UniProt Q9GZV5).
T2 construct: gene WWTR1; endogenous full-length TAZ in HEK293T freeze-thaw lysate (Methods: endogenous)
T2 sequence (Q9GZV5 whole entry): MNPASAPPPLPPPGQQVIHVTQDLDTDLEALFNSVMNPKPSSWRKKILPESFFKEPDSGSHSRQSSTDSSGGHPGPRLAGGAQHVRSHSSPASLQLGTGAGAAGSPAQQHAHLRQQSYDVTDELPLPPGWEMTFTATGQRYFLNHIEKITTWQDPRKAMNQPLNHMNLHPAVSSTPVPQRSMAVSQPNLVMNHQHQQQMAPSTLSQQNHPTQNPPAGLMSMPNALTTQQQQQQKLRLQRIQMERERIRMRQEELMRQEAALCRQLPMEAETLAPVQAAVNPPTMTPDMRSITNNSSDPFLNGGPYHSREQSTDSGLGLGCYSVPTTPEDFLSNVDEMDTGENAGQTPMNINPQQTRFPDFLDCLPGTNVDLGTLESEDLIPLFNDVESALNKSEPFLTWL
Put plainly: cellular thermal shift assay (CETSA) with western blot. The following applies: 100 μM alexidine, 4 h at 4 °C, HEK293T lysate, heated 25-60 °C; destabilising shift. Background: Immunoblotting shows a protein as a band on a membrane.

Assay [3] deals with T3, TAZ-TEAD biosensor (FLAG-SmBiT-TAZ / His-LgBiT-TEAD1) (Homo sapiens, UniProt Q9GZV5).
T3 construct: gene WWTR1; FLAG-SmBiT-TAZ aa 13-119 and His-LgBiT-TEAD1 aa 194-411 co-expressed in HEK293T; cell lysate; tags kept; with Transcriptional enhancer factor TEF-1
T3 sequence (Q9GZV5 13-119): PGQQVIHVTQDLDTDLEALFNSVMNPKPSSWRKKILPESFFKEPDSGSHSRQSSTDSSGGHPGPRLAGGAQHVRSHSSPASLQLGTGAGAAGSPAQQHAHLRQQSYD
T3 sequence (P28347 209-426 partner): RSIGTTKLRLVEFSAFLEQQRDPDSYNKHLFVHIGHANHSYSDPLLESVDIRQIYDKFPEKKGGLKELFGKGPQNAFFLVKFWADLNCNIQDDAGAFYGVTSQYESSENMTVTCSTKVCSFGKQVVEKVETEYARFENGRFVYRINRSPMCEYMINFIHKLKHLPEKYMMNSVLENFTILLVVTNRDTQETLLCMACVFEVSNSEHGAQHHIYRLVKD
The assay is described as follows: TR-FRET dose response (anti-FLAG-Tb / anti-His-D2), disruption of TAZ-TEAD1 interaction. The following applies: HEK293T lysate, 18 h; protein-protein interaction inhibition.

T1 sequence (Q9GZV5 whole entry): as the sequence (Q9GZV5 whole entry) above
T1 sequence (P28347 whole entry partner): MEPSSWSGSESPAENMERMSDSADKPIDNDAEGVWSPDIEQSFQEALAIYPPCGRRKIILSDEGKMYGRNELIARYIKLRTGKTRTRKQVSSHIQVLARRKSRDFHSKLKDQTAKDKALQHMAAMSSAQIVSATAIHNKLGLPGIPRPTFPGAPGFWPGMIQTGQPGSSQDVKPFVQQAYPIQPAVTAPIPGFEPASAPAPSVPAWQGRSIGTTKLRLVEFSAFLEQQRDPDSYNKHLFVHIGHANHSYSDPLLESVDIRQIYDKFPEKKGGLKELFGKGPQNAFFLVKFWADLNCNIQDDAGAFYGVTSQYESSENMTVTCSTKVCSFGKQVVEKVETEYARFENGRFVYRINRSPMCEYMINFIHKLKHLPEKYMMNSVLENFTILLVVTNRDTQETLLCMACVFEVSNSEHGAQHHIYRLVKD

In the case of `CCCCC(CC)CNC(=N)NC(=N)NCCCCCCNC(=N)NC(=N)NCC(CC)CCCC` (stereo not drawn) [alexidine], in assay [1], the “% PPI signal” value was “inhibition of GST-TAZ and VF-TEAD1 interaction was achieved by alexidine treatment”. The Tm entry in assay [2] was “A reduction in TAZ rather than TEAD stability and melting temperature (Tm) was observed”. In addition, the TR-FRET signal entry in assay [3] was “alexidine disrupted TAZ- TEAD PPI in a dose-dependent manner”.
